Test results reported in ChEMBL document CHEMBL1201862, “PubChem BioAssay data set” (2004).
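Each compound was tested at five concentrations against cells in 96-well plates for 48 hours. GI50 marks 50% less growth.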 The source made the active and inactive calls. Cut-off read from the data, not from the text of the source: active = GI50 up to about 1.1 µM and inactive = higher.

What was measured:
Test in all cases: DTP human tumour cell line panel, 48 h
ACHN = system: ACHN
BT-549 = system: BT-549
CAKI-1 = system: CAKI-1
HCT-15 = system: HCT-15
Hs-578T = system: Hs-578T
K562 = system: K562
KM12 = system: KM12
LOX IMVI = system: LOX IMVI
MDA-MB-435 = system: MDA-MB-435
NCI-H226 = system: NCI-H226
NCI-H460 = system: NCI-H460
NCI-H522 = system: NCI-H522
OVCAR-5 = system: OVCAR-5
RXF 393 = system: RXF 393
SF-268 = system: SF-268
SK-MEL-2 = system: SK-MEL-2
SK-OV-3 = system: SK-OV-3
SW-620 = system: SW-620
UACC-257 = system: UACC-257

Measured: GI50

O=c1c2ccccc2nc(-c2cc3c(cc2Cl)Sc2nccn2S3(=O)=O)n1-c1ccccc1
12.9 µM: HCT-15
inactive: ACHN > 100 µM | BT-549 41.1 µM | CAKI-1 > 100 µM | Hs-578T 12.2 µM | K562 18.8 µM | KM12 11.1 µM | LOX IMVI 88.7 µM | MDA-MB-435 22.8 µM | NCI-H226 > 100 µM | NCI-H460 37.3 µM | NCI-H522 > 100 µM | OVCAR-5 > 100 µM | RXF 393 18.8 µM | SF-268 7.1 µM | SK-MEL-2 18.5 µM | SK-OV-3 > 100 µM | SW-620 13.5 µM | UACC-257 18 µM

Nc1ccc2c(=O)cc(-c3cccs3)[nH]c2n1
inactive: ACHN 11.7 µM | BT-549 4.88 µM | CAKI-1 6.67 µM | Hs-578T 3.66 µM | NCI-H226 2.42 µM | NCI-H460 2.77 µM | NCI-H522 1.36 µM | OVCAR-5 15.3 µM | RXF 393 4.17 µM | SF-268 8.93 µM | SK-MEL-2 6.32 µM | SK-OV-3 5.25 µM | UACC-257 5.9 µM
1.29 µM: HCT-15
active: K562 0.847 µM | KM12 0.535 µM | LOX IMVI 1.07 µM | MDA-MB-435 0.285 µM | SW-620 1.01 µM

CC(C)C(C/C=C1\CC(CO)(COC(=O)c2ccccc2)OC1=O)C(C)C (stereo not drawn)
21.6 µM: HCT-15
inactive: ACHN 16.7 µM | BT-549 21.7 µM | CAKI-1 18.7 µM | Hs-578T 13.1 µM | K562 12 µM | KM12 17.5 µM | LOX IMVI 19.5 µM | MDA-MB-435 84.9 µM | NCI-H226 19.8 µM | NCI-H460 15.8 µM | NCI-H522 21.6 µM | OVCAR-5 14.3 µM | RXF 393 23 µM | SF-268 19 µM | SK-MEL-2 > 100 µM | SK-OV-3 28.1 µM | SW-620 18 µM | UACC-257 27.6 µM

Cc1ccccc1C(=O)N/N=C/c1ccc(Sc2nccn2C)c([N+](=O)[O-])c1
66.8 µM: HCT-15
inactive: ACHN > 100 µM | BT-549 67.1 µM | CAKI-1 78.9 µM | Hs-578T 85.9 µM | K562 42.4 µM | KM12 66.7 µM | LOX IMVI 50.8 µM | MDA-MB-435 25.9 µM | NCI-H226 > 100 µM | NCI-H460 49 µM | NCI-H522 61.9 µM | OVCAR-5 > 100 µM | RXF 393 74.3 µM | SF-268 > 100 µM | SK-MEL-2 68.7 µM | SK-OV-3 > 100 µM | SW-620 > 100 µM | UACC-257 > 100 µM

COc1cc2c(NCCCCCCO[N+](=O)[O-])ncnc2c(OC)c1OC
inactive: ACHN 32.9 µM | BT-549 23.1 µM | CAKI-1 19.1 µM | Hs-578T 29.2 µM | K562 29.2 µM | KM12 16.2 µM | LOX IMVI 20.2 µM | MDA-MB-435 18.1 µM | NCI-H226 16 µM | NCI-H460 22.3 µM | NCI-H522 19.7 µM | OVCAR-5 30.2 µM | RXF 393 17.9 µM | SF-268 25.5 µM | SK-MEL-2 21.6 µM | SK-OV-3 49.3 µM | SW-620 26.2 µM | UACC-257 17.8 µM
24 µM: HCT-15

CC1CC[C@@]2(OC1)OC1C[C@H]3[C@@H]4CC[C@H]5CC(OC6OC(CO)C(OC7OC(CO)C(O)C(O)C7O)C(O)C6O)CCC5(C)[C@H]4CCC3(C)C1[C@@H]2C (stereo partly drawn)
inactive: ACHN 7.53 µM | BT-549 4.86 µM | CAKI-1 8.49 µM | Hs-578T 8.57 µM | K562 12.5 µM | KM12 8.18 µM | LOX IMVI 4.58 µM | MDA-MB-435 9.25 µM | NCI-H226 8.81 µM | NCI-H460 9.04 µM | NCI-H522 6.19 µM | OVCAR-5 8.65 µM | RXF 393 10.7 µM | SF-268 9.57 µM | SK-MEL-2 7.85 µM | SK-OV-3 10.1 µM | SW-620 8.81 µM | UACC-257 9.64 µM
12.6 µM: HCT-15

COc1cc(C)cc(C(=O)OCc2ccccc2)c1C1=C(Cl)C(=O)C(Cl)=CC1=O
> 10 µM: HCT-15
inactive: ACHN > 10 µM | BT-549 > 10 µM | CAKI-1 > 10 µM | Hs-578T > 10 µM | K562 2.27 µM | KM12 > 10 µM | LOX IMVI > 10 µM | MDA-MB-435 > 10 µM | NCI-H226 > 10 µM | NCI-H460 > 10 µM | NCI-H522 2.05 µM | OVCAR-5 > 10 µM | RXF 393 > 10 µM | SF-268 > 10 µM | SK-MEL-2 > 10 µM | SK-OV-3 > 10 µM | SW-620 > 7.59 µM | UACC-257 > 9.02 µM
